The values that follow come from US9982005B2, “Macrolides and methods of their preparation and use” (President and Fellows of Harvard College, priority 2013, dated 2018).

Holding throughout (format): cell-based
Test [1] concerns S. aureus (Newman, clinical isolate). Put plainly: MIC, S. aureus Newman. As to conditions: Staphylococcus aureus. The text has this: (§1) We have collected MIC data for a total of 50 novel macrolides that this platform has produced against over 21 unique strains of B. subtilis, E. coli, S. aureus, S. pneumoniae, and H. influenzae, including several multidrug-resistant strains, with a special focus on macrolide resistant mechanisms (vide supra). Azithromycin was included as a control macrolide. CLSI standard procedures for broth dilution MIC determination were used. […] These genotypes can be constitutive or inducible. The finding that C4-epi (unnatural) isomers of the “azaketolide” macrolide class have enhanced activities relative to C4 natural isomers is very exciting.

Test [2] concerns E. faecalis strains. Description: MIC against E. faecalis strains (Table M8). Conditions: Enterococcus faecalis, E. faecalis 29212.
In test [3] the test system is H. influenzae strains. Put plainly: MIC against H. influenzae strains (Table M8). As to conditions: Haemophilus influenzae. The procedure, abridged: (§2)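 CLSI broth dilution; MIC read-out. Azithromycin run as reference macrolide.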
The subject of test [4] is S. pneumoniae strains. Put plainly: MIC against S. pneumoniae strains (Tables M7, M8). Conditions: Streptococcus pneumoniae. From the text: CLSI standard procedures for broth dilution MIC determination were used. […] These genotypes can be constitutive or inducible.
Test [5] deals with E. coli strains. Description: MIC against E. coli strains (Table M7). As to conditions: Escherichia coli, ATCC25922, E. coli ATCC 25922. Put shortly: as §2
Test [6] deals with A. baumannii strains. Description: MIC against A. baumannii strains (Table M8). As to conditions: Acinetobacter baumannii, BAA747, A. baumannii BAA747-1.
The subject of test [7] is K. pneumoniae strains. Description: MIC against K. pneumoniae strains (Table M8). As to conditions: Klebsiella pneumoniae, K. pneumoniae 10031.
The subject of test [8] is S. aureus strains. Description: MIC against S. aureus strains (Table M7). Conditions: Staphylococcus aureus. The procedure, abridged:
as §2

In test [9] the test system is E. coli (MC4100). Put plainly: MIC, E. coli MC4100. Conditions: Escherichia coli.
Description: as §1

Where [10] appears, read: H. influenzae 49247, read-out: MIC H. influenzae (49247).
Where [11] appears, read: H. influenzae 49766, read-out: MIC H. influenzae (49766).
The mark [12] stands for this setting: S. pneumoniae 160, read-out: MIC S. pneumonae (160).
Setting [13] is: S. pneumoniae 1509, read-out: MIC S. pneumoniae (1509).
The mark [14] stands for this setting: S. pneumoniae 1533, read-out: MIC S. pneumoniae (1533).
Setting [15] is: S. pneumoniae 1537, read-out: MIC S. pneumoniae (1537).
Setting [16] is: S. pneumoniae 49619, read-out: MIC S. pneumoniae (49619).
Setting [17] is: ATCC29213, S. aureus ATCC 29213, read-out: MIC S. aureus (ATCC 29213).
Where [18] appears, read: S. aureus 506, read-out: MIC S. aureus (506).
Where [19] appears, read: S. aureus 1708, read-out: MIC S. aureus (1708).
Setting [20] is: USA300, S. aureus USA300, read-out: MIC S. aureus (USA300).
Where [21] appears, read: S. aureus (Neuman, clinical isolate), round 2.

SMILES strings stand for the structures. Converted amounts (≈) assume the structure as drawn. Like-named read-outs stand apart in the source and are kept apart here. Where only a bound is given, the exact number is not on record here.

In the case of `CC[C@H]1OC(=O)[C@H](C)C(=O)[C@H](C)[C@@H](O[C@@H]2OC(C)CC(N(C)C)C2O)[C@](C)(OC)C[C@@H](C)CN[C@H](C)[C@H]2N(CCCn3cc(-c4cccc(N)c4)nn3)C(=O)O[C@]12C` (stereo partly drawn) [FSM-40347], the MIC in test [1] (S. aureus (Newman, clinical isolate), round 1) was found to be 2 µg/mL (≈ 2.46 µM); in test [2], 0.25 µg/mL (≈ 0.307 µM); in test [3] (setting [10]), 0.5 µg/mL (≈ 0.614 µM); in test [3] (setting [11]), 4 µg/mL (≈ 4.91 µM); in test [4] (setting [12]), 0.125 µg/mL (≈ 0.154 µM); in [4] (setting [13]), 32 µg/mL (≈ 39.3 µM). The MIC is more than 32 µg/mL in test [4] (setting [14]); more than 32 µg/mL in test [4] (setting [15]); 0.25 µg/mL (≈ 0.307 µM) in [4] (setting [16]); 8 µg/mL (≈ 9.83 µM) in test [5]; 8 µg/mL (≈ 9.83 µM) in [6]; 2 µg/mL (≈ 2.46 µM) in [7]. In addition, the MIC in test [8] (setting [17]) is 4 µg/mL (≈ 4.91 µM); in test [8] (setting [18]), more than 32 µg/mL; in [8] (setting [19]), 4 µg/mL (≈ 4.91 µM); in [8] (setting [20]) it was 4 µg/mL (≈ 4.91 µM); in [9] (round 1, read-out: MIC), 8 µg/mL (≈ 9.83 µM).
As for `CC[C@H]1OC(=O)CC(=O)[C@H](C)[C@@H](O[C@@H]2OC(C)CC(N(C)C)C2O)[C@](C)(OC)C[C@@H](C)CN[C@H](C)[C@H]2N(CCCCn3cc(-c4cccc(N)c4)nn3)C(=O)O[C@]12C` (stereo partly drawn) [FSM-56133], the MIC was 4 µg/mL (≈ 4.91 µM) in test [1] (setting [21]); 0.5 µg/mL (≈ 0.614 µM) in test [2]; 1 µg/mL (≈ 1.23 µM) in [3] (setting [10]); 4 µg/mL (≈ 4.91 µM) in [3] (setting [11]); 0.5 µg/mL (≈ 0.614 µM) in test [4] (setting [12]); more than 32 µg/mL in test [4] (setting [13]). The MIC in test [4] (setting [14]) was more than 32 µg/mL; in [4] (setting [15]), more than 32 µg/mL; in test [4] (setting [16]) it was 1 µg/mL (≈ 1.23 µM); in [5] it was 8 µg/mL (≈ 9.83 µM); in test [6], 32 µg/mL (≈ 39.3 µM); in [7], 2 µg/mL (≈ 2.46 µM). For the same compound, the MIC is 4 µg/mL (≈ 4.91 µM) in test [8] (setting [17]); more than 32 µg/mL in test [8] (setting [18]); 4 µg/mL (≈ 4.91 µM) in test [8] (setting [19]); 8 µg/mL (≈ 9.83 µM) in [8] (setting [20]); 8 µg/mL (≈ 9.83 µM) in test [9] (round 2, read-out: MIC).
For `C=CC[C@H]1C(=O)O[C@H](CC)[C@@]2(C)OC(=O)N(CCCCn3cc(-c4cccc(N)c4)nn3)[C@@H]2[C@@H](C)NC[C@H](C)C[C@@](C)(OC)[C@H](O[C@@H]2OC(C)CC(N(C)C)C2O)[C@@H](C)C1=O` (stereo partly drawn) [FSM-56156], the MIC in test [1] (setting [21]) turned out to be 2 µg/mL (≈ 2.34 µM); in test [2], 1 µg/mL (≈ 1.17 µM); in [3] (setting [10]), 2 µg/mL (≈ 2.34 µM); in test [3] (setting [11]) it was 8 µg/mL (≈ 9.37 µM); in [4] (setting [12]), 0.25 µg/mL (≈ 0.293 µM); in test [4] (setting [13]), 8 µg/mL (≈ 9.37 µM). For the same compound, the MIC in test [4] (setting [14]) is more than 32 µg/mL; in test [4] (setting [15]), more than 32 µg/mL; in test [4] (setting [16]), 1 µg/mL (≈ 1.17 µM); in test [5] it was 16 µg/mL (≈ 18.7 µM); in test [6], 32 µg/mL (≈ 37.5 µM); in [7] it was 4 µg/mL (≈ 4.68 µM). Also, the MIC was 4 µg/mL (≈ 4.68 µM) in test [8] (setting [17]); more than 32 µg/mL in [8] (setting [18]); 4 µg/mL (≈ 4.68 µM) in [8] (setting [19]); 8 µg/mL (≈ 9.37 µM) in test [8] (setting [20]); 4 µg/mL (≈ 4.68 µM) in test [9] (round 2, read-out: MIC).
